Our source for the Ki and IC50 values is publication PMC9126592, “sp^2-Iminosugars targeting human lysosomal β-hexosaminidase as pharmacological chaperone candidates for late-onset Tay-Sachs disease” (Journal of Enzyme Inhibition and Medicinal Chemistry, 2022).

For assay [1], the target named is T1, recombinant human O-GlcNAcase (hOGA) (Homo sapiens, UniProt O60502).
T1 construct: the N-terminal region of hOGA, comprising amino acids 11–396; the C-terminal region, comprising amino acids 535–715; His6 (N); His6 followed by 3C-protease cleavage site (N); made in house; host or cells: E. coli Bl21(DE3)-Gold
T1 sequence (O60502 11-396): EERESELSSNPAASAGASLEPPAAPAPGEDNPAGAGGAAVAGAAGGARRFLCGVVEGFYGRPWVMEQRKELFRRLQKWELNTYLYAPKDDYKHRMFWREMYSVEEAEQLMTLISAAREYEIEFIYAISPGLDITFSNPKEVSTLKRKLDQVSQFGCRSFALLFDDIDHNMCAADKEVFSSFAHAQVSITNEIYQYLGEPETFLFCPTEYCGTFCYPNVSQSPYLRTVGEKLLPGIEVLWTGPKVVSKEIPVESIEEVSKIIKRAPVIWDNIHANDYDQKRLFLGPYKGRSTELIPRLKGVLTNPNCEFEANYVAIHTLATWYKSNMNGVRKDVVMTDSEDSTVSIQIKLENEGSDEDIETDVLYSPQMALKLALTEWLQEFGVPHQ
T1 sequence (O60502 535-715): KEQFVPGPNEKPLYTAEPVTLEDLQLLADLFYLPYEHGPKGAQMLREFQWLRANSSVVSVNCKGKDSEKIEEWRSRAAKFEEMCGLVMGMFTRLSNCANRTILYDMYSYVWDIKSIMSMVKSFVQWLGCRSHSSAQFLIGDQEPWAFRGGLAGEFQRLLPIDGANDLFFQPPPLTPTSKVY
Put plainly: Inhibition of recombinant human O-GlcNAcase (resorufin N-acetyl-β-D-glucosaminide). It counts as biochemical. Conditions: for Ki: recombinant human O-GlcNAcase, read-out: Ki OGA. The text has this: The gene of the longest isoform of hOGA (hOGA-L; Uniprot Accession number: O60502) was synthesised in a codon-optimised form for recombinant expression in Escherichia coli. The successful expression construct encoded the N-terminal region of hOGA, comprising amino acids 11–396, and the C-terminal region, comprising amino acids 535–715. The N-terminal construct was cloned in the vector pACYC-Duet (Millipore) using the sequence and ligation-independent cloning method in frame with an N-terminal His6 tag. The C-terminal construct was cloned into the vector pET-YSBLIC3C27 with an N-terminal His6 tag followed by a 3 C-protease cleavage site using the same method. The nucleotide sequences of all made constructs were confirmed by sequencing. Both vectors were simultaneously transformed into E. coli Bl21(DE3)-Gold (Agilent) for subsequent protein expression. Cells were grown in 2 L TB-medium to an OD600 of ∼1.0 and protein synthesis was then induced by adding IPTG to a final concentration of 0.1 mM. Protein expression was carried out at 16 °C with an induction time of 20 h. The cells were harvested by centrifugation at 4,500 × g for 20 min, flash frozen and stored at −20 °C until required. For purification of the hOGA complex, cells were resuspended in 50 mM HEPES pH 7.0, 750 mM NaCl, 20 mM imidazole, and 0.5 mM DTT (resuspension buffer). Cells were lysed using a French Press at 25 kPsi. The lysate was cleared by centrifugation at 50,000 g for 1 h, and the supernatant was passed through a 10 ml HisTrap FF column (GE Healthcare) pre-equilibrated with resuspension buffer. The bound hOGA was purified by gradient elution over 10 column volumes using 0% to 50% of elution buffer (50 mM HEPES pH 7.0, 750 mM NaCl, 500 mM imidazole and 0.5 mM DTT). hOGA-containing fractions were combined, concentrated by ultrafiltration using Vivaspin columns (Sartorius) with a molecular weight cut-off (MWCO) of 30 kDa, and applied to a Superdex S200 column (GE Healthcare) pre-equilibrated with size-exclusion buffer (10 mM HEPES pH 7.0, 250 mM NaCl, 1 mM DTT). Fractions corresponding to the dimeric form of hOGA were combined and concentrated to 20 mg/mL by ultrafiltration with a Vivaspin (MWCO: 30 kDa) column, flash frozen using liquid nitrogen, and stored at −80 °C until required.
Inhibition assays were run at 0.2 nM [hOGA] in the same buffer, in the presence or absence of various concentrations of inhibitors and at a fixed substrate concentration of 25 µM and 1% DMSO. First, inhibitor was serially diluted to the desired range of concentrations in 2% DMSO buffer. Next, 50 µL of inhibitor solutions at various concentrations in 2% DMSO Buffer was added to 50 μl of 0.8 nM enzyme and allowed to incubate at 25 °C for 5 min. 100 µL of 50 µM and 1% DMSO substrate was then added and reaction mixture was immediately mixed and aliquoted in 45 µL triplicates to a CORNING 384 well black plate. Fluorescence signal was measured continuously for 20 min at 37 °C in a BioTek Neo 2 Plate reader set at excitation and emission wavelengths of 572 and 610 nm, respectively. Max reaction rates for all inhibitor concentrations were calculated within Gen5 BioTek reader software. % Activity was subsequently calculated for each inhibitor concentration against the max reaction rate of uninhibited hOGA.

The target of assay [2] is β-hexosaminidase from Jack bean. Put plainly: Commercial enzyme inhibition assay, β-hexosaminidase from Jack bean. Conditions: mean ± SD (n = 3); competitive. In kind it is biochemical. The protocol: Inhibition constant (Ki) values were determined by spectrophotometrically measuring the residual hydrolytic activities of the glycosidases against the respective o- (for β-galactosidase from E. coli) or p-nitrophenyl α- or β-D-glycopyranoside (for other glycosidases) in the presence of the iminosugars. Each assay was performed in phosphate buffer or phosphate-citrate buffer (for α- or β-mannosidase, amyloglucosidase or β-N-acetylglucosaminidase) at the optimal pH for the enzymes. The reactions were initiated by addition of the enzyme to a solution of the substrate in the absence or presence of various inhibitor concentrations. The mixture was incubated for 10–30 min at 37 °C or 55 °C (for amyloglucosidase) and the reaction was quenched by addition of 1 m Na2CO3. Reaction times were appropriate to obtain 10%–20% conversion of the substrate in order to achieve linear rates. The absorbance of the resulting mixture was determined at 405 nm. Approximate values of Ki were determined using a fixed concentration of substrate (around the KM value for the different glycosidases) and various inhibitor concentrations. Full Ki determinations and the enzyme inhibition mode were determined from the slope of Lineweaver-Burk plots and double reciprocal analysis.

As for `CC(=O)NC1CN2C(=Nc3ccccc3)SCC2C(O)C1O` (stereo not drawn) [Compound 8, 2-Acetamido-1,2-dideoxy-5-N,6-S-(N’-phenyliminomethylidene)-6-thiogalactonojirimycin], the results for the Ki in assay [1] and in assay [2] were over 100 µM and 0.13 ± 0.01 µM, respectively.
For `CCCCN=C1SCC2C(O)C(O)C(NC(C)=O)CN12` (stereo not drawn) [Compound 5, 2-Acetamido-1,2-dideoxy-5-N,6-S-(N’-butyliminomethylidene)-6-thiogalactonojirimycin], in that order: over 100 µM and 0.14 ± 0.01 µM.
For `CCCCCCCCN=C1SCC2C(O)C(O)C(NC(C)=O)CN12` (stereo not drawn) [Compound 6, 2-Acetamido-1,2-dideoxy-5-N,6-S-(N’-octyliminomethylidene)-6-thiogalactonojirimycin], the Ki (as a rule, the equilibrium dissociation constant of an inhibitor or competing ligand from its target) was over 100 µM in assay [1] and 0.048 ± 0.002 µM in assay [2].
As to `CC(=O)N[C@H]1CN(C(=S)NCc2ccccc2)[C@H](CO)[C@H](O)[C@@H]1O` [Compound 3, 2-Acetamido-1,2-dideoxy-5-N-(N’-benzylthiocarbamoyl)galactonojirimycin], the results for the inhibitory constant (Ki) in assay [1] and in assay [2] were over 100 µM and 5.1 ± 0.2 µM, respectively.
Regarding `CC(=O)N[C@H]1CN(C(=S)Nc2ccccc2)[C@H](CO)[C@H](O)[C@@H]1O` [Compound 4, 2-Acetamido-1,2-dideoxy-5-N-(N’-phenylthiocarbamoyl)galactonojirimycin], the inhibition constant (Ki) was over 100 µM in assay [1] and 0.065 µM in assay [2].
As for `CC(=O)NC1CN2C(=NCc3ccccc3)SCC2C(O)C1O` (stereo not drawn) [Compound 7, 2-Acetamido-1,2-dideoxy-5-N,6-S-(N’-benzyliminomethylidene)-6-thiogalactonojirimycin], the IC50 (in general, the point on the concentration scale where inhibition reaches its midpoint) in assay [1] (read-out: IC50 against OGA) is 25 µM. Further, the Ki came out at 25 µM in assay [1] and 0.088 ± 0.003 µM in assay [2].
Take `CCCCNC(=S)N1C[C@H](NC(C)=O)[C@@H](O)[C@@H](O)[C@H]1CO` [Compound 1, 2-Acetamido-1,2-dideoxy-5-N-(N’-butylthiocarbamoyl)galactonojirimycin]: the results for the Ki in assay [1] and in assay [2] were over 100 µM and 3 ± 0.1 µM, respectively.
For the compound `CCCCCCCCNC(=S)N1C[C@H](NC(C)=O)[C@@H](O)[C@@H](O)[C@H]1CO` [Compound 2, 2-Acetamido-1,2-dideoxy-5-N-(N’-octylthiocarbamoyl)galactonojirimycin], the Ki in assay [1] was over 100 µM; in assay [2], 7.2 ± 0.2 µM.
